# Where two headings read alike, the source gives them in different places.
# Molecular target: T1, HCV NS3/NS4a serine protease (Hepatitis C virus genotype 1b, UniProt P26663)
# T1 construct: amino terminus of the NS3 protease domain (amino acids 3-181) with a tetrapeptide linker; made in house; host or cells: E. coli
# Assay: Spectrophotometric assay for HCV protease inhibitory activity (chromogenic ester substrates)
# Assay type: biochemical, hepatitis C virus (strain 1b)
# Conditions: single chain NS4A21-32-GSGS-NS3 3-181 protease, 30° C., pH 6.5
# Experimental: Spectrophotometric Assay: Spectrophotometric assays for the HCV serine protease were performed on the inventive compounds by following the procedure described by R. Zhang et al., Analytical Biochemistry, 270 (1999) 268-275, the disclosure of which is incorporated herein by reference. The assay based on the proteolysis of chromogenic ester substrates is suitable for the continuous monitoring of HCV NS3 protease activity.
# HCV NS3 protease (strain 1b) and its NS4A cofactor were constructed as a recombinant single chain protein. The NS4A cofactor domain (amino acid residues 21-32) was fused in frame to the amino terminus of the NS3 protease domain (amino acids 3-181) with a tetrapeptide linker. This NS4A 21-32-GSGS-NS33-181 construct was then expressed in E. coli and purified to >90% homogeneity. Kinetic parameters were determined and found to be the same as that of the full length NS31-631/NS4A1-54 protein complex produced in the baculovirus system (D. L. Sali et al, Biochemistry, 37 (1998) 3392-340). The details of the cloning, expression, purification and kinetic analysis of the of the single chain recombinant protease have been previously described (S. S. Taremi, et al. Protein Science. 7 (1998) 2143-2149.
# Protein concentrations were determined by the Biorad dye method using recombinant HCV protease standards previously quantified by amino acid analysis. Prior to assay initiation, the enzyme storage buffer (50 mM sodium phosphate pH 8.0, 300 mM NaCl, 10% glycerol, 0.05% lauryl maltoside and 10 mM DTT) was exchanged for the assay buffer (25 mM MOPS pH 6.5, 300 mM NaCl, 10% glycerol, 0.05% lauryl maltoside, 5 μM EDTA and 5 μM DTT) utilizing a Biorad Bio-Spin P-6 prepacked column.
# Protease Assay: HCV protease assays were performed at 30° C. using a 200 μl reaction mix in a 96-well microtiter plate. Assay buffer conditions (25 mM MOPS pH 6.5, 300 mM NaCl, 10% glycerol, 0.05% lauryl maltoside, 5 μM EDTA and 5 μM DTT) were optimized for the NS3/NS4A heterodimer (D. L. Sali et al, ibid.)). Typically, 100 μl mixtures of buffer, substrate and inhibitor were placed in wells and allowed to preincubate at 30° C. for approximately 3 minutes. One hundred μls of pre-warmed protease (30° C.) in assay buffer, was then used to initiate the reaction to produce a final concentration of 1.3 nM HCV). The Substrate cleavage by the protease was monitored over 60 minutes by measuring the release of the phenylazophenol (PAP) product at an absorbance of 370 nm with a continuous read every 30 seconds using a SpectraMax Plus microtiter plate reader (Molecular Devices, Sunnyvale, Calif.). Background hydrolysis of the substrate was subtracted. Inhibitors were tested over a range of concentrations (final DMSO concentration 4%)
# Evaluation of Inhibitors The inhibition constants (Ki) for the competitive inhibitors were determined experimentally at fixed concentrations of enzyme and substrate by plotting vo/vi vs. inhibitor concentration ([I]o) according to the rearranged Michaelis-Menten equation for competitive inhibition kinetics: vo/vi=1+[I]o/(Ki(1+[S]o/Km)), where vo is the uninhibited initial velocity, vi is the initial velocity in the presence of inhibitor at any given inhibitor concentration ([I]o) and [S]o is the substrate concentration used. The resulting data were fitted using linear regression and the resulting slope, 1/(Ki(1+[S]o/Km), was used to calculate the Ki value.
# T1 sequence (P26663 1013-1207, looked up, natural form): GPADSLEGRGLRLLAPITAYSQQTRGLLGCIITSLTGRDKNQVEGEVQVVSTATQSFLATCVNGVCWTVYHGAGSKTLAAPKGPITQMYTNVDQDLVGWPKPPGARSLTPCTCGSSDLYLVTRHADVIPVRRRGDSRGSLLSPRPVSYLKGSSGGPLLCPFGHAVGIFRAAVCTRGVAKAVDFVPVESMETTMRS
smiles,measurement,setting,value
COC(=O)c1ccc(CCNC(=O)[C@H](CC(F)F)NC(=O)[C@@H]2[C@@H]3[C@H](CN2C(=O)[C@@H](NC(=O)N[C@H](C(=O)OC(C)(C)C)C(C)(C)C)C(C)(C)C)C3(C)C)cc1 [Example 139],Ki,"Ki Rating, Table 2",100 to 500 nM
CN(CCc1ccccn1)C(=O)[C@H](CC(F)F)NC(=O)[C@@H]1[C@@H]2[C@H](CN1C(=O)[C@@H](NC(=O)N[C@H](CN(C)S(C)(=O)=O)C(C)(C)C)C(C)(C)C)C2(C)C [Example 305],Ki,"Ki, Table 3, rating",> 500 nM
CN(C[C@@H](NC(=O)N[C@H](C(=O)N1C[C@H]2[C@@H]([C@H]1C(=O)N[C@@H](CC(F)F)C(=O)NCc1cccs1)C2(C)C)C(C)(C)C)C(C)(C)C)S(C)(=O)=O [Example 212],Ki,"Ki, Table 3, rating",> 500 nM
CC(CO)NC(=O)[C@H](CC(F)F)NC(=O)[C@@H]1[C@@H]2[C@H](CN1C(=O)[C@@H](NC(=O)N[C@H](CN(C)S(C)(=O)=O)C(C)(C)C)C(C)(C)C)C2(C)C (stereo partly drawn) [Example 230],Ki,"Ki, Table 3, rating",> 500 nM
CN(C[C@@H](NC(=O)N[C@H](C(=O)N1C[C@H]2[C@@H]([C@H]1C(=O)N[C@@H](CC(F)F)C(=O)N1Cc3ccccc3C1)C2(C)C)C(C)(C)C)C(C)(C)C)S(C)(=O)=O [Example 301],Ki,"Ki, Table 3, rating",> 500 nM
COC(=O)c1ccc(CCNC(=O)[C@H](CC(F)F)NC(=O)[C@@H]2[C@@H]3[C@H](CN2C(=O)[C@@H](NC(=O)N[C@H](C(=O)OC(C)(C)C)C(C)C)C(C)(C)C)C3(C)C)cc1 [Example 137],Ki,"read-out: Ki Rating, Table 2",100 to 500 nM
CCOc1ccccc1CCNC(=O)[C@H](CC(F)F)NC(=O)[C@@H]1[C@@H]2[C@H](CN1C(=O)[C@@H](NC(=O)N[C@H](CN(C)S(C)(=O)=O)C(C)(C)C)C(C)(C)C)C2(C)C [Example 273],Ki,"Ki, Table 3, rating",< 100 nM
CN(C[C@@H](NC(=O)N[C@H](C(=O)N1C[C@H]2[C@@H]([C@H]1C(=O)N[C@@H](CC(F)F)C(=O)NCCc1ccc(Oc3ccccc3)cc1)C2(C)C)C(C)(C)C)C(C)(C)C)S(C)(=O)=O [Example 291],Ki,"Ki, Table 3, rating",< 100 nM
CN(C[C@@H](NC(=O)N[C@H](C(=O)N1C[C@H]2[C@@H]([C@H]1C(=O)N[C@@H](CC(F)F)C(=O)NCCOc1ccccc1)C2(C)C)C(C)(C)C)C(C)(C)C)S(C)(=O)=O [Example 221],Ki,"Ki, Table 3, rating",> 500 nM
CC(C)(C)OC(=O)N[C@H](C(=O)N1C[C@H]2[C@@H]([C@H]1C(=O)NC(CC(F)F)C(=O)O)C2(C)C)C(C)(C)C (stereo partly drawn) [Example 167],Ki,"Ki Rating, Table 2",> 500 nM
CC(C)[C@H](NC(=O)N[C@H](C(=O)N1C[C@@H]2OC(C)(C)C[C@@H]2[C@H]1C(=O)N[C@@H](CC(F)F)C(=O)NCCc1ccc(C(=O)O)cc1)C1CCCCC1)C(=O)OC(C)(C)C [Example 150],Ki,"Ki Rating, Table 2",> 500 nM
CN(C[C@@H](NC(=O)N[C@H](C(=O)N1C[C@H]2[C@@H]([C@H]1C(=O)N[C@@H](CC(F)F)C(=O)NC1CCc3ccccc31)C2(C)C)C(C)(C)C)C(C)(C)C)S(C)(=O)=O (stereo partly drawn) [Example 217],Ki,"Ki, Table 3, rating",> 500 nM
CC(C)[C@H](NC(=O)N[C@H](C(=O)N1C[C@H]2[C@@H]([C@H]1C(=O)N[C@@H](CC(F)F)C(=O)NCCC(=O)OC(C)(C)C)C2(C)C)C(C)(C)C)C(=O)OC(C)(C)C [Example 174],Ki,"Ki Rating, Table 2",> 500 nM
CN(C[C@@H](NC(=O)N[C@H](C(=O)N1C[C@H]2[C@@H]([C@H]1C(=O)N[C@@H](CC(F)F)C(=O)NCC1CC1)C2(C)C)C(C)(C)C)C(C)(C)C)S(C)(=O)=O [Example 205],Ki,"Ki, Table 3, rating",> 500 nM
CC(C)[C@H](NC(=O)N[C@H](C(=O)N1C[C@H]2[C@@H]([C@H]1C(=O)NC(CC(F)F)C(=O)NCCc1ccccc1Cl)C2(C)C)C(C)(C)C)C(=O)OC(C)(C)C (stereo partly drawn) [Example 147],Ki,"Ki Rating, Table 2",> 500 nM
CN(C[C@@H](NC(=O)N[C@H](C(=O)N1C[C@H]2[C@@H]([C@H]1C(=O)N[C@@H](CC(F)F)C(=O)NCCCn1ccnc1)C2(C)C)C(C)(C)C)C(C)(C)C)S(C)(=O)=O [Example 239],Ki,"Ki, Table 3, rating",> 500 nM
CN(C[C@@H](NC(=O)N[C@H](C(=O)N1C[C@H]2[C@@H]([C@H]1C(=O)N[C@@H](CC(F)F)C(=O)N[C@H]1CCCC[C@H]1OCc1ccccc1)C2(C)C)C(C)(C)C)C(C)(C)C)S(C)(=O)=O [Example 256],Ki,"Ki, Table 3, rating",> 500 nM
CC1(C)C[C@H]2[C@H](CN(C(=O)[C@@H](NC(=O)OCc3ccccc3)C3CCCCC3)[C@@H]2C(=O)N[C@@H](CC(F)F)C(=O)O)O1 [Example 161],Ki,"Ki Rating, Table 2",> 500 nM
Cc1ccc(CCNC(=O)[C@H](CC(F)F)NC(=O)[C@@H]2[C@@H]3[C@H](CN2C(=O)[C@@H](NC(=O)N[C@H](CN(C)S(C)(=O)=O)C(C)(C)C)C(C)(C)C)C3(C)C)c(C)c1 [Example 266],Ki,"Ki, Table 3, rating",< 100 nM
CC(C)CCNC(=O)[C@H](CC(F)F)NC(=O)[C@@H]1[C@@H]2[C@H](CN1C(=O)[C@@H](NC(=O)N[C@H](CN(C)S(C)(=O)=O)C(C)(C)C)C(C)(C)C)C2(C)C [Example 208],Ki,"Ki, Table 3, rating",> 500 nM
COC(=O)c1ccc(CCNC(=O)[C@H](CC(F)F)NC(=O)[C@@H]2[C@@H]3[C@H](CN2C(=O)[C@@H](NC(=O)NC2(CS(C)(=O)=O)CCCCC2)C(C)(C)C)C3(C)C)cc1 [Example 110],Ki,"Ki, Table 1",40 nM
CN(C[C@@H](NC(=O)N[C@H](C(=O)N1C[C@H]2[C@@H]([C@H]1C(=O)N[C@@H](CC(F)F)C(=O)NCc1ccccn1)C2(C)C)C(C)(C)C)C(C)(C)C)S(C)(=O)=O [Example 233],Ki,"Ki, Table 3, rating",> 500 nM
CC(C)[C@H](NC(=O)N[C@H](C(=O)N1C[C@H]2[C@@H]([C@H]1C(=O)NC(CC(F)F)C(=O)NCCc1ccccc1)C2(C)C)C(C)(C)C)C(=O)O (stereo partly drawn) [Example 136],Ki,"Ki Rating, Table 2",100 to 500 nM
CC(C)(C)[C@H](NC(=O)N[C@H](CN1CCCS1(=O)=O)C(C)(C)C)C(=O)N1C[C@H]2[C@@H](C1C(=O)NC(CC(F)F)C(=O)NCCc1ccc(C(=O)O)cc1Cl)C2(C)C (stereo partly drawn) [Example 102],Ki,"Ki, Table 1",21 nM
CN(CCc1ccccc1)C(=O)[C@H](CC(F)F)NC(=O)[C@@H]1[C@@H]2[C@H](CN1C(=O)[C@@H](NC(=O)N[C@H](CN(C)S(C)(=O)=O)C(C)(C)C)C(C)(C)C)C2(C)C [Example 303],Ki,"Ki, Table 3, rating",> 500 nM
CN(C[C@@H](NC(=O)N[C@H](C(=O)N1C[C@H]2[C@@H]([C@H]1C(=O)N[C@@H](CC(F)F)C(=O)NCCc1c(F)cccc1F)C2(C)C)C(C)(C)C)C(C)(C)C)S(C)(=O)=O [Example 306],Ki,"Ki, Table 3, rating",< 100 nM
CN(C[C@@H](NC(=O)N[C@H](C(=O)N1C[C@H]2[C@@H]([C@H]1C(=O)N[C@@H](CC(F)F)C(=O)NCCc1ccc(-c3ccccc3)cc1)C2(C)C)C(C)(C)C)C(C)(C)C)S(C)(=O)=O [Example 288],Ki,"Ki, Table 3, rating",< 100 nM
CC(C)(C)[C@H](NC(=O)NC1(CS(C)(=O)=O)CCCCC1)C(=O)N1C[C@H]2[C@@H](C1C(=O)NC(CC(F)F)C(=O)NCCc1ccc(C(N)=O)cc1)C2(C)C (stereo partly drawn) [Example 109],Ki,"Ki, Table 1",38 nM
CCOC(=O)N1CCC(NC(=O)[C@H](CC(F)F)NC(=O)[C@@H]2[C@@H]3[C@H](CN2C(=O)[C@@H](NC(=O)N[C@H](CN(C)S(C)(=O)=O)C(C)(C)C)C(C)(C)C)C3(C)C)CC1 [Example 227],Ki,"Ki, Table 3, rating",> 500 nM
CN(C[C@@H](NC(=O)N[C@H](C(=O)N1C[C@H]2[C@@H]([C@H]1C(=O)N[C@@H](CC(F)F)C(=O)N[C@H]1CCCC[C@@H]1OCc1ccccc1)C2(C)C)C(C)(C)C)C(C)(C)C)S(C)(=O)=O [Example 255],Ki,"Ki, Table 3, rating",> 500 nM
CN(C[C@@H](NC(=O)N[C@H](C(=O)N1C[C@H]2[C@@H]([C@H]1C(=O)N[C@@H](CC(F)F)C(=O)NC1CC1)C2(C)C)C(C)(C)C)C(C)(C)C)S(C)(=O)=O [Example 203],Ki,"Ki, Table 3, rating",> 500 nM
CC1(NC(=O)N[C@H](C(=O)N2C[C@H]3[C@@H]([C@H]2C(=O)N[C@@H](CC(F)F)C(=O)NCCC(=O)O)C3(C)C)C(C)(C)C)CCCCC1 [Example 165],Ki,"Ki Rating, Table 2",> 500 nM
COC(=O)c1ccc(CCNC(=O)[C@H](CC(F)F)NC(=O)[C@@H]2[C@H]3CC(C)(C)O[C@H]3CN2C(=O)[C@@H](NC(=O)OCc2ccccc2)C2CCCCC2)cc1 [Example 173],Ki,"Ki Rating, Table 2",> 500 nM
